Source: BindingDB's records for patent US9487490 (Merck Sharp & Dohme Corp, 2016)
pIC50: −log10 of the molar value.

Target: T1, Isoform 2 of Nuclear receptor ROR-gamma (RORgT) (Homo sapiens, UniProt P51449)
T1 sequence (P51449 whole entry): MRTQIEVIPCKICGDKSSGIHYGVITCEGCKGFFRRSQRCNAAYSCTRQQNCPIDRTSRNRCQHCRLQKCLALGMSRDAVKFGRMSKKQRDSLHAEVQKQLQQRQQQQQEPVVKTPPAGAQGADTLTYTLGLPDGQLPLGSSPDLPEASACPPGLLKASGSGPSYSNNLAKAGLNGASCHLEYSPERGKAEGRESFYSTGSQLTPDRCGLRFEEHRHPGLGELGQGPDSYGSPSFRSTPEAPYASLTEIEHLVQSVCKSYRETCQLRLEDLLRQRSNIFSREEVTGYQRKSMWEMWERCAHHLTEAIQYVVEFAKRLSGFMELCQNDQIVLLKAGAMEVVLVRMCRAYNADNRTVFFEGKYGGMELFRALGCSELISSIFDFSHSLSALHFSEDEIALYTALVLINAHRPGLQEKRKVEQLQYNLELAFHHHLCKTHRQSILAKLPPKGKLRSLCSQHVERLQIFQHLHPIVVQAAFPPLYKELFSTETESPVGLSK
Experiment: TR-FRET Assay
Details: pH 7; 4 °C
Method: To identify novel antagonists of RORgammaT, an assay was developed which employs the interaction of RORgammaT with its co-activator peptide SRC1_2. […] The RORγ-LBD protein was purified by glutathione sepharose chromatography. […] The mixture was then diluted in assay buffer (50 mM Tris pH 7.0, 50 mM KCl, 1 mM EDTA, 0.1 mM DTT) to obtain RORγ-LBD final concentration of 3 nM in 384-well assay plate. Compounds to be tested were injected to the assay plate using Acoustic Droplet Ejection technology by Echo 550 liquid handler (Labcyte, Calif.).

pIC50: 8.30
SMILES: CC1CC(c2nn(C(=O)c3c(Cl)cccc3C(F)(F)F)c3cccc(F)c23)=CC(O)C1C(=O)O (stereo unspecified) [US9487490, 6C]
